Key:
[1] = tested on: per2 reporter cells; assay: circadian rhythm assay (luciferase reporter assay) using per2 reporter cells; assay type: cell-based, human; conditions: 5 mM fumaric acid
Method: Referring to the "Cell-based circadian assays" described in the article by H. Oike et al. (NPL 1), a circadian rhythm assay (luciferase reporter assay) using per2 reporter cells was performed to evaluate the action of fumaric acid on circadian rhythms.
U-2OS cells were transfected with a vector prepared by incorporating the per2 promoter region into a NanoLuc (registered trademark) luciferase vector by using transfection reagent 1 according to a standard method. After about 24 hours, the medium was replaced, and dexamethasone was added at a final concentration of 100 nM to synchronize the cells. After two hours, 1% substrate (Endurazine) was added, and the luminescence intensity of luciferase was measured every 30 minutes using a plate reader equipped with CO2 control and temperature control.
After 25 days, formed colonies were collected and seeded in a 96-well plate (1 × 10^3 cells/well). After three days, the luminescence intensity of luciferase was measured every 60 minutes using a plate reader with CO^2 control and temperature control, in the same manner as described above.
Subsequently, cell lines with minimal variation in circadian rhythm cycle and stable periodicity were selected. These selected cell lines, referred to as "per2 reporter cells" were used in the following experiments.
The prepared per2 reporter cells were seeded in a 96-well plate at a density of 5 × 10^3 cells/well. The medium used was high-glucose medium 1 supplemented with 10% fetal bovine serum (FBS), 1% penicillin-streptomycin, and hygromycin, and the cells were cultured at 37°C under 5% CO2 conditions.
After two days from culture, 100 nM dexamethasone was added, and the cells were treated for 2 hours, followed by adding a 1% substrate (Endurazine). Subsequently, the luminescence intensity of luciferase was measured every 12 minutes. For the measurement, high-glucose medium 2 supplemented with 5% FBS and 1% penicillin-streptomycin was used.
Subsequently, fumaric acid was added to the measurement medium to achieve a final concentration of 5 mM, and the luminescence intensity of luciferase was measured over time using a long-term real-time luminescence measurement system for cultured cells (WSL-1565, Kronos HT) to evaluate changes in circadian rhythm. For a control, the luminescence intensity of luciferase in per2 reporter cells cultured in measurement medium without fumaric acid was measured over time in the same manner.
In the luminescence intensity rhythms, valleys were represented by T and peaks by P, and they were labeled as P1, T1, P2, and T2 in order of appearance. Since P1 was unstable in rhythm, the circadian rhythm of per2 reporter cells was evaluated based on the phases of the valleys (T1 and T2) and peak (P2) after T1.

[2] = tested on: GPR41 gene; assay: induction of GPR41 gene expression in Caco-2 cells (real-time PCR); assay type: cell-based, human; conditions: 5 mM fumaric acid, 60 minutes, differentiated Caco-2 cells; Fig. 2
Method: Caco-2 cells were seeded in a 24-well plate at 2 × 10^5 cells/well. After 3 weeks of differentiation induction, 5 mM fumaric acid was added, and cells were collected 60 minutes later. RNA was extracted, and GPR41 gene expression levels were measured by real-time PCR.

[3] = fumaric acid-added cells versus control

O=C(O)/C=C/C(=O)O [Fumaric Acid, fumaric acid]
circadian rhythm cycle, T2-T1 ([1]; calculated from the phase difference between T1 and T2, control 29.6): 26.4 h
phase of circadian rhythm, T1 ([1]; first valley (T1) of luciferase luminescence rhythm, U-2OS per2 reporter cells, control 22.4): 22.2 h
Difference in Cycle, T2-T1 [1, 3]: -3.2 h
Difference in Phase, P2 [1, 3]: -0.6 h
Difference in Phase, T1 [1, 3]: -0.2 h
Difference in Phase, T2 [1, 3]: -3.4 h
phase of circadian rhythm, P2 ([1]; peak P2 of luciferase luminescence rhythm, control 34.8): 34.2 h
phase of circadian rhythm, T2 ([1]; second valley (T2) of luciferase luminescence rhythm, control 52.0): 48.6 h
expression level of the GPR41 gene [2]: increased

From patent publication EP4759148A1, “ADJUSTMENT OF CIRCADIAN RHYTHM” (MEIJI CO., LTD, priority 2023, dated 2025)
